One test concerns the target KRas G12C (Homo sapiens, UniProt P01116, C118S/C51S/C80L/G12C). As to the kind of experiment: KRas G12C Modification Assay (LCMS detection of covalent adduct). The test is classed as binding. To be noted: normalized percent of control; tested at 5 μM concentration for 3 hours. A digest of the protocol: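 Covalent modification was read by reverse-phase LC/MS of intact protein after compound exposure, each reaction stopped at its time point with 25 mM acetic acid. Unmodified-protein signal, taken as percent of total, was normalised to untreated protein and reported as POC.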

Test [1] relates to NCI-H358 cells (express KRas G12C), Phospho-ERK. Kind of test: Cellular inhibition of KRas G12C: Phospho-ERK in NCI-H358 cells. Format: cell-based. To be noted: Homo sapiens, NCI-H358, 3 h, pERK(Thr202/Tyr204) normalized with GAPDH; NCI-H358 cells; 3 hours; read-out: IC50. An outline of the steps:
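IC50 derived by 4-parameter fit of GAPDH-normalized pERK(Thr202/Tyr204) signal, as percent of DMSO control. Signal came from in-cell immunodetection with infrared secondaries after 3 h compound exposure of KRas G12C NCI-H358 cells at 0.5% DMSO.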

The IC50 is the concentration that gives 50% inhibition. As for `C=CC(=O)N1CCN(c2nc(O[C@H](C)[C@H]3CCCN3C)nc3c2CCN(c2cc(O)cc4ccccc24)C3)C[C@@H]1CC#N` [Example 348, 2-[(2S)-4-[7-(3-hydroxy-1-naphthyl)-2-[(1R)-1-[(2R)-1-methylpyrrolidin-2-yl]ethoxy]-6,8-dihydro-5H-pyrido[3,4-d]pyrimidin-4-yl]-1-prop-2-enoyl-piperazin-2-yl]acetonitrile], at KRas G12C, the POC entry is recorded as “C (“C”>50% POC)”. In test [1], the IC50 was 0.1 to 1000 nM.
Regarding `C=CC(=O)N1CCN(c2nc(OC[C@@H]3CCCN3C)nc3c2CCN(c2c(C)ccc(F)c2C)C3)C[C@@H]1CC#N` [Example 349, 2-((S)-1-acryloyl-4-(7-(3-fluoro-2,6-dimethylphenyl)-2-(((S)-1-methylpyrrolidin-2-yl)methoxy)-5,6,7,8-tetrahydropyrido[3,4-d]pyrimidin-4-yl)piperazin-2-yl)acetonitrile], the POC entry on KRas G12C is reported as “C (“C”>50% POC)”. In addition, the IC50 in test [1] was 0.1 to 1000 nM.
For `C=CC(=O)N1CCN(c2nc(OC[C@@H]3CCN(C)C3)nc3c2CCN(c2cc(O)cc4ccccc24)C3)C[C@@H]1CC#N` [Example 350, 2-((S)-1-acryloyl-4-(7-(3-hydroxynaphthalen-1-yl)-2-(((R)-1-methylpyrrolidin-3-yl)methoxy)-5,6,7,8-tetrahydropyrido[3,4-d]pyrimidin-4-yl)piperazin-2-yl)acetonitrile], the POC entry at KRas G12C is “C (“C”>50% POC)”. Further, the IC50 in test [1] fell in the range of 0.1 to 1000 nM.
On the same counts, the results for `C=CC(=O)N1CCN(c2nc(OCc3ncc[nH]3)nc3c2CCN(c2cccc4ccccc24)C3)C[C@@H]1CC#N` [Example 351, 2-[(2S)-4-[2-(1H-imidazol-2-ylmethoxy)-7-(1-naphthyl) -6,8-dihydro-5H-pyrido[3,4-d]pyrimidin-4-yl]-1-prop-2-enoyl-piperazin-2-yl]acetonitrile] are “C (“C”>50% POC)” and 0.1 to 1000 nM.
On the same counts, the results for `C=CC(=O)N1CCN(c2nc(OC[C@@H]3CCCN3C)nc3c2CCN(c2cnccc2C2CC2)C3)C[C@@H]1CC#N` [Example 352, 2-[(2S)-4-[7-(4-cyclopropyl-3-pyridyl)-2-[[(2S)-1-methylpyrrolidin-2-yl]methoxy]-6,8-dihydro-5H-pyrido[3,4-d]pyrimidin-4-yl]-1-prop-2-enoyl-piperazin-2-yl]acetonitrile] are “C (“C”>50% POC)” and 0.1 to 1000 nM.
On the same counts, the results for `C=CC(=O)N1CCN(c2nc(OC[C@@H]3CCCN3C)nc3c2CCN(c2cccc4ccccc24)C3)[C@H](C)C1` [Example 353, 1-[(3R)-3-methyl-4-[2-[[(2S)-1-methylpyrrolidin-2-yl]methoxy]-7-(1-naphthyl)-6,8-dihydro-5H-pyrido[3,4-d]pyrimidin-4-yl]piperazin-1-yl]prop-2-en-1-one] are “C (“C”>50% POC)” and over 1000 nM.
As for `C=CC(=O)N1CCN(c2nc(OC[C@@H]3CCCN3C)nc3c2CCN(c2cccc4ccccc24)C3)C(C)(C)C1` [Example 354, 1-[3,3-dimethyl-4-[2-[[(2S)-1-methylpyrrolidin-2-yl]methoxy]-7-(1-naphthyl)-6,8-dihydro-5H-pyrido[3,4-d]pyrimidin-4-yl]piperazin-1-yl]prop-2-en-1-one], the POC entry on KRas G12C was “C (“C”>50% POC)”. The IC50 in test [1] is over 1000 nM.
For `C=CC(=O)N1CCN(c2nc(OC[C@@H]3C[C@@H](F)CN3C)nc3c2CCN(c2cc(OC)cc4ccccc24)C3)CC1` [Example 355, 1-[4-[2-[[(2S,4R)-4-fluoro-1-methyl-pyrrolidin-2-yl]methoxy]-7-(3-methoxy-1-naphthyl)-6,8-dihydro-5H-pyrido[3,4-d]pyrimidin-4-yl]piperazin-1-yl]prop-2-en-1-one], in that order: “A (“A”≤25% POC)” and over 1000 nM.
On the same counts, the results for `C=CC(=O)N1CCN(c2nc(OC[C@@H]3C[C@@H](OC)CN3C)nc3c2CCN(c2cc(OC)cc4ccccc24)C3)CC1` [Example 356, 1-[4-[2-[[(2S,4R)-4-methoxy-1-methyl-pyrrolidin-2-yl]methoxy]-7-(3-methoxy-1-naphthyl)-6,8-dihydro-5H-pyrido[3,4-d]pyrimidin-4-yl]piperazin-1-yl]prop-2-en-1-one] are “C (“C”>50% POC)” and over 1000 nM.
As for `C=CC(=O)N1CCN(c2nc(OC[C@@H]3C[C@@H](F)CN3C)nc3c2CCN(c2cc(O)cc4ccccc24)C3)CC1` [Example 357, 1-[4-[2-[[(2S,4R)-4-fluoro-1-methyl-pyrrolidin-2-yl]methoxy]-7-(3-hydroxy-1-naphthyl)-6,8-dihydro-5H-pyrido[3,4-d]pyrimidin-4-yl]piperazin-1-yl]prop-2-en-1-one], on KRas G12C, the POC entry was “A (“A”≤25% POC)”. Besides, in test [1], the IC50 is 0.1 to 1000 nM.
`C#CC[C@H]1CN(c2nc(OC[C@@H]3CCCN3C)nc3c2CCN(c2cccc4ccccc24)C3)CCN1C(=O)C=C` [Example 358, 1-[(2S)-4-[2-[[(2S)-1-methylpyrrolidin-2-yl]methoxy]-7-(1-naphthyl)-6,8-dihydro-5H-pyrido[3,4-d]pyrimidin-4-yl]-2-prop-2-ynyl-piperazin-1-yl]prop-2-en-1-one]: the POC entry on KRas G12C is given as “C (“C”>50% POC)”. In addition, in test [1], the IC50 lay within 0.1 to 1000 nM.
On to `C=CC(=O)N1CCN(c2nc(OC[C@@H]3CCCN3C)nc3c2CCN(c2cccc4cccc(C)c24)C3)C[C@@H]1CC#N` [Example 359, 2-((S)-1-acryloyl-4-(7-(8-methylnaphthalen-1-yl)-2-(((S)-1-methylpyrrolidin-2-yl)methoxy)-5,6,7,8-tetrahydropyrido[3,4-d]pyrimidin-4-yl)piperazin-2-yl)acetonitrile], for which the POC result on KRas G12C is “C (“C”>50% POC)”. The IC50 in test [1] lay within 0.1 to 1000 nM.
For `C=CC(=O)N1CCN(c2nc(OC[C@@H]3CCCN3C)nc3c2CCN(c2cccc4cccc(CC)c24)C3)C[C@@H]1CC#N` [Example 360, 2-[(2S)-4-[7-(8-ethyl-1-naphthyl)-2-[[(2S)-1-methylpyrrolidin-2-yl]methoxy]-6,8-dihydro-5H-pyrido[3,4-d]pyrimidin-4-yl]-1-prop-2-enoyl-piperazin-2-yl]acetonitrile], in that order: “C (“C”>50% POC)” and 0.1 to 1000 nM.
On the same counts, the results for `C=CC(=O)N1CCN(c2nc(OC[C@@H]3CCN(C)C3)nc3c2CCN(c2cccc4cccc(Cl)c24)C3)C[C@@H]1CC#N` [Example 361, 2-[(2S)-4-[7-(8-chloro-1-naphthyl)-2-[[(3R)-1-methylpyrrolidin-3-yl]methoxy]-6,8-dihydro-5H-pyrido[3,4-d]pyrimidin-4-yl]-1-prop-2-enoyl-piperazin-2-yl]acetonitrile] are “C (“C”>50% POC)” and 0.1 to 1000 nM.
For `C=CC(=O)N1CCN(c2nc(OCCN3CCCCC3)nc3c2CCN(c2cccc4cccc(Cl)c24)C3)C[C@@H]1CC#N` [Example 362, 2-[(2S)-4-[7-(8-chloro-1-naphthyl)-2-[2-(1-piperidyl)ethoxy]-6,8-dihydro-5H-pyrido[3,4-d]pyrimidin-4-yl]-1-prop-2-enoyl-piperazin-2-yl]acetonitrile], in that order: “C (“C”>50% POC)” and 0.1 to 1000 nM.
For the compound `C=CC(=O)N1CCN(c2nc(OC[C@H]3CN(C)CCO3)nc3c2CCN(c2cccc4cccc(Cl)c24)C3)C[C@@H]1CC#N` [Example 363, 2-[(2S)-4-[7-(8-chloro-1-naphthyl)-2-[[(2R)-4-methylmorpholin-2-yl]methoxy]-6,8-dihydro-5H-pyrido[3,4-d]pyrimidin-4-yl]-1-prop-2-enoyl-piperazin-2-yl]acetonitrile], the POC result on KRas G12C was “C (“C”>50% POC)”. Also, the IC50 in test [1] is 0.1 to 1000 nM.
On the same counts, the results for `C=CC(=O)N1CCN(c2nc(OC[C@@H]3CCCN3C)nc3c2CCN(c2cccc(C)c2C(F)(F)F)C3)C[C@@H]1CC#N` [Example 364, 2-[(2S)-4-[2-[[(2S)-1-methylpyrrolidin-2-yl]methoxy]-7-[3-methyl-2-(trifluoromethyl)phenyl]-6,8-dihydro-5H-pyrido[3,4-d]pyrimidin-4-yl]-1-prop-2-enoyl-piperazin-2-yl]acetonitrile] are “C (“C”>50% POC)” and 0.1 to 1000 nM.
Consider `C=CC(=O)N1CCN(c2nc(OCCCN3C[C@@H]4C[C@H]3CO4)nc3c2CCN(c2cccc4cccc(Cl)c24)C3)C[C@@H]1CC#N` [Example 365, 2-[(2S)-4-[7-(8-chloro-1-naphthyl)-2-[3-[(1S,4S)-2-oxa-5-azabicyclo[2.2.1]heptan-5-yl]propoxy]-6,8-dihydro-5H-pyrido[3,4-d]pyrimidin-4-yl]-1-prop-2-enoyl-piperazin-2-yl]acetonitrile], for which the POC result on KRas G12C is reported as “C (“C”>50% POC)”. In addition, the IC50 in test [1] was 0.1 to 1000 nM.
Regarding `C=CC(=O)N1CCN(c2nc(OC[C@@H]3CC(F)(F)CN3C)nc3c2CCN(c2cccc4cccc(Cl)c24)C3)C[C@@H]1CC#N` [Example 366, 2-[(2S)-4-[7-(8-chloro-1-naphthyl)-2-[[(2S)-4,4-difluoro-1-methyl-pyrrolidin-2-yl]methoxy]-6,8-dihydro-5H-pyrido[3,4-d]pyrimidin-4-yl]-1-prop-2-enoyl-piperazin-2-yl]acetonitrile], on KRas G12C, the POC entry is reported as “C (“C”>50% POC)”. For the same compound, the IC50 in test [1] was in the range of 0.1 to 1000 nM.
For `CN1CCC[C@H]1COc1nc2c(c(N3CCN(C(=O)/C=C/CN4CCOCC4)[C@@H](CC#N)C3)n1)CCN(c1cccc3cccc(Cl)c13)C2` [Example 367, 2-[(2S)-4-[7-(8-chloro-1-naphthyl)-2-[[(2S)-1-methylpyrrolidin-2-yl]methoxy]-6,8-dihydro-5H-pyrido[3,4-d]pyrimidin-4-yl]-1-[(E)-4-morpholinobut-2-enoyl]piperazin-2-yl]acetonitrile], the POC result on KRas G12C is recorded as “C (“C”>50% POC)”. Further, the IC50 in test [1] is 0.1 to 1000 nM.
